# Patent US20210038587A1, “METHODS AND COMPOSITIONS FOR TREATING NON-ERK MAPK PATHWAY INHIBITOR-RESISTANT CANCERS” (BIOMED VALLEY DISCOVERIES, INC., priority 2013, published 2021)
# How the values were obtained:
# Test in all cases: Reverse Phase Protein Analysis (RPPA)
# MIAPaCa-2 = assay type: cell-based; conditions: MIAPaca2; % change from DMSO (matched cell line)
# A375 = assay type: cell-based, human; conditions: % change from DMSO (matched cell line)
# Protocol: (§1) Control wells were treated with DMSO at 0.1% (v/v) for 6 hours prior to cell lysate generation. Samples were then analyzed using reverse-phase protein microarray technology (Theranostics Health).
# (§2) Cell lines with common alterations in BRAF and RAS were assayed: BRAF^V600E mutant lines A375, Colo205, and HT29; KRAS^G12C-mutant cell line MIAPACa-2; KRAS^G13D-mutant cell line HCT116; and AN3Ca with atypical HRAS^F82L mutation. Changes in protein levels are shown as a percentage change from dimethyl sulfoxide (DMSO)-treated parental control (FIG. 32A and Table 23).
# HCT116 = assay type: cell-based, human; conditions: % change from DMSO (matched cell line)
# Protocol: as §1, §2
# Colo205 = assay type: cell-based, human; conditions: % change from DMSO (matched cell line)
smiles,measurement,setting,value
CC(C)Nc1cc(-c2c[nH]c(C(=O)N[C@H](CO)c3cccc(Cl)c3)c2)c(Cl)cn1 [BVD-523],Avg (4ebp1 T70),MIAPaCa-2,−9.42%
same,Avg (Akt S473),MIAPaCa-2,9.9%
same,Avg (Akt),MIAPaCa-2,23.63%
same,Avg (Bad S136),MIAPaCa-2,−4.12%
same,Avg (Bad S155),MIAPaCa-2,−5.65%
same,Avg (Bak),MIAPaCa-2,−15.15%
same,Avg (Bax),MIAPaCa-2,23.44%
same,Avg (Bcl 2),MIAPaCa-2,5.86%
same,Avg (Bcl2 S70),MIAPaCa-2,0.89%
same,Avg (Bcl 2 T56),MIAPaCa-2,−1.78%
same,Avg (Bim),MIAPaCa-2,−12.51%
same,Avg (CREB S133),MIAPaCa-2,−19.26%
same,Avg (Caspase 3 CL D175),MIAPaCa-2,22.35%
same,Avg (Caspase 7 Cl D198),MIAPaCa-2,−6.44%
same,Avg (Chk1),MIAPaCa-2,−3.51%
same,Avg (Chk1 S345),MIAPaCa-2,1.2%
same,Avg (Cyclin D1),MIAPaCa-2,−37.9%
same,Avg (ERK 1 2),MIAPaCa-2,−40.33%
same,Avg (ERK 1 2 T202 Y204),MIAPaCa-2,209.14%
same,Avg (MAK1 S360),MIAPaCa-2,−10.72%
same,Avg (Mcl1),MIAPaCa-2,−7.27%
same,Avg (Raptor S792),MIAPaCa-2,5.95%
same,Avg (Raptor),MIAPaCa-2,21.15%
same,Avg (Stat1),MIAPaCa-2,8.62%
same,Avg (Stat3),MIAPaCa-2,−1.23%
same,Avg (bad S112),MIAPaCa-2,−30.29%
same,Avg (c Fos),MIAPaCa-2,−18.44%
same,Avg (c Myc),MIAPaCa-2,−8.77%
same,Avg (mTOR S2448),MIAPaCa-2,−11.73%
same,Avg (mTOR S2481),MIAPaCa-2,−0.24%
same,Avg (mTOR),MIAPaCa-2,−3.27%
same,Avg (p70 S6 Kinase),MIAPaCa-2,−3.59%
same,Avg (p90 RSK S380),MIAPaCa-2,−35%
same,Avg(S6 Ribo Prot S235 236),MIAPaCa-2,−79.46%
same,Avg(S6 Ribo Prot S240 244),MIAPaCa-2,−88.03%
same,Avg(Tuberin TSC2 Y1571),MIAPaCa-2,1.7%
same,Avg(p70 S6 Kinase S371 S394),MIAPaCa-2,−28.27%
same,Avg(p70 S6 Kinase T389 T412),MIAPaCa-2,−39.23%
same,Avg (4ebp1 T70),A375,−31.82%
same,Avg (Akt S473),A375,73.07%
same,Avg (Akt),A375,−14.03%
same,Avg (Bad S136),A375,12.31%
same,Avg (Bad S155),A375,−21.9%
same,Avg (Bak),A375,−3.26%
same,Avg (Bax),A375,−6.98%
same,Avg (Bcl 2),A375,−12.55%
same,Avg (Bcl2 S70),A375,−7.91%
same,Avg (Bcl 2 T56),A375,−8.54%
same,Avg (Bim),A375,14.57%
same,Avg (CREB S133),A375,−12.65%
same,Avg (Caspase 3 CL D175),A375,−8.06%
same,Avg (Caspase 7 Cl D198),A375,3.18%
same,Avg (Chk1),A375,16.94%
same,Avg (Chk1 S345),A375,−7.43%
same,Avg (Cyclin D1),A375,−81.45%
same,Avg (ERK 1 2),A375,−22.91%
same,Avg (ERK 1 2 T202 Y204),A375,43.34%
same,Avg (MAK1 S360),A375,3.35%
same,Avg (Mcl1),A375,10.67%
same,Avg (Raptor S792),A375,−10.33%
same,Avg (Raptor),A375,−7.77%
same,Avg (Rictor),A375,−20.11%
same,Avg (Stat1),A375,1.32%
same,Avg (Stat3),A375,6.02%
same,Avg (bad S112),A375,−72.37%
same,Avg (c Fos),A375,4.39%
same,Avg (c Myc),A375,2.56%
same,Avg (mTOR S2448),A375,−27.87%
same,Avg (mTOR S2481),A375,−3.36%
same,Avg (mTOR),A375,0.2%
same,Avg (p70 S6 Kinase),A375,−7.6%
same,Avg (p90 RSK S380),A375,−71%
same,Avg(S6 Ribo Prot S235 236),A375,−95.3%
same,Avg(S6 Ribo Prot S240 244),A375,−91.98%
same,Avg(Tuberin TSC2 Y1571),A375,−6.32%
same,Avg(p70 S6 Kinase S371 S394),A375,−8.58%
same,Avg(p70 S6 Kinase T389 T412),A375,−23.79%
same,Avg (4ebp1 T70),HCT116,4.03%
same,Avg (Akt S473),HCT116,−6.14%
same,Avg (Akt),HCT116,4.41%
same,Avg (Bad S136),HCT116,−11.49%
same,Avg (Bad S155),HCT116,−30.72%
same,Avg (Bak),HCT116,−13.16%
same,Avg (Bax),HCT116,−0.8%
same,Avg (Bcl 2),HCT116,−3.59%
same,Avg (Bcl2 S70),HCT116,−8.23%
same,Avg (Bcl 2 T56),HCT116,−8.36%
same,Avg (Bim),HCT116,12.44%
same,Avg (CREB S133),HCT116,−30.64%
same,Avg (Caspase 3 CL D175),HCT116,−10.11%
same,Avg (Caspase 7 Cl D198),HCT116,−21.09%
same,Avg (Chk1),HCT116,−11.26%
same,Avg (Chk1 S345),HCT116,−39.65%
same,Avg (Cyclin D1),HCT116,−69.62%
same,Avg (ERK 1 2),HCT116,−29.42%
same,Avg (ERK 1 2 T202 Y204),HCT116,849.12%
same,Avg (MAK1 S360),HCT116,−13.45%
same,Avg (Mcl1),HCT116,−8.72%
same,Avg (Raptor S792),HCT116,−22.04%
same,Avg (Raptor),HCT116,−7.06%
same,Avg (Rictor),HCT116,−13.05%
same,Avg (Stat1),HCT116,−13.76%
same,Avg (Stat3),HCT116,−5.52%
same,Avg (bad S112),HCT116,−34.27%
same,Avg (c Fos),HCT116,−14.08%
same,Avg (c Myc),HCT116,−11.15%
same,Avg (mTOR S2448),HCT116,−12.78%
same,Avg (mTOR S2481),HCT116,−34.09%
same,Avg (mTOR),HCT116,−11.96%
same,Avg (p70 S6 Kinase),HCT116,−12.86%
same,Avg (p90 RSK S380),HCT116,−31.81%
same,Avg(S6 Ribo Prot S235 236),HCT116,−96.31%
same,Avg(S6 Ribo Prot S240 244),HCT116,−96.26%
same,Avg(Tuberin TSC2 Y1571),HCT116,−29.89%
same,Avg(p70 S6 Kinase S371 S394),HCT116,−16.9%
same,Avg(p70 S6 Kinase T389 T412),HCT116,−28.11%
same,Avg (4ebp1 T70),Colo205,−36.35%
same,Avg (Akt S473),Colo205,−5.78%
same,Avg (Akt),Colo205,−3.85%
same,Avg (Bad S136),Colo205,5.05%
same,Avg (Bad S155),Colo205,−18.18%
same,Avg (Bak),Colo205,3.79%
same,Avg (Bax),Colo205,0.28%
same,Avg (Bcl 2),Colo205,−0.13%
same,Avg (Bcl2 S70),Colo205,−10.2%
same,Avg (Bcl 2 T56),Colo205,−11.84%
same,Avg (Bim),Colo205,41.73%
same,Avg (CREB S133),Colo205,−2.67%
same,Avg (Caspase 3 CL D175),Colo205,−3.18%
same,Avg (Caspase 7 Cl D198),Colo205,6.76%
same,Avg (Chk1),Colo205,−2.86%
same,Avg (Chk1 S345),Colo205,−4.63%
same,Avg (Cyclin D1),Colo205,−23.65%
same,Avg (ERK 1 2),Colo205,−18.83%
same,Avg (ERK 1 2 T202 Y204),Colo205,14.39%
same,Avg (MAK1 S360),Colo205,14.69%
same,Avg (Mcl1),Colo205,−2.7%
same,Avg (Raptor S792),Colo205,0.41%
same,Avg (Raptor),Colo205,−7.14%
same,Avg (Rictor),Colo205,−5.21%
same,Avg (Stat1),Colo205,0.53%
same,Avg (Stat3),Colo205,−2.58%
same,Avg (bad S112),Colo205,−31.51%
same,Avg (c Fos),Colo205,−12.25%
same,Avg (mTOR S2448),Colo205,−23.51%
same,Avg (mTOR S2481),Colo205,−1.33%
same,Avg (mTOR),Colo205,12.77%
same,Avg (p70 S6 Kinase),Colo205,0.14%
same,Avg (p90 RSK S380),Colo205,−50.84%
same,Avg(S6 Ribo Prot S235 236),Colo205,−96.15%
same,Avg(S6 Ribo Prot S240 244),Colo205,−97.33%
same,Avg(Tuberin TSC2 Y1571),Colo205,−3.48%
same,Avg(p70 S6 Kinase S371 S394),Colo205,−18.11%
same,Avg(p70 S6 Kinase T389 T412),Colo205,−36.4%
